The term TD50 denotes the dose at which the toxic effect under study appears in half of the subjects.

Five compounds from PubChem BioAssay AID1745844 (Carcinogenic Potency Database (CPDB), 2022) can be followed below.

Calls of active or inactive are those of the source. The rule behind the calls is not given here.

The test system of the series is rodent lifetime carcinogenesis bioassay, tumor incidence TD50. As to the kind of experiment: carcinogenic potency in animals, long-term in vivo studies, CPDB compilation (AID 1745844).

For the compound `CC(C)Oc1ccccc1OC(=O)N(C)N=O`, the TD50 is, setting by setting: (rat, strain Sprague-Dawley, males, by gavage, site: forestomach, lesion: carcinoma, dosed 31 weeks, study length 90 weeks) 0.434 mg/kg/day; (rat, strain Sprague-Dawley, males, by gavage, site: forestomach, lesion: one or several types, types not named, dosed 31 weeks, study length 90 weeks) 0.364 mg/kg/day.
`FC(F)OC(F)(F)C(F)Cl` (stereo unspecified): the carcinogen call runs as follows: (mouse, strain Swiss/ICR, females, inhaled, site: liver, lesion: one or several types, types not named, dosed 52 weeks, study length 52 weeks) “negative (inactive)”; (mouse, strain Swiss/ICR, females, inhaled, site: liver, lesion: several types, types named in the paper, dosed 78 weeks, study length 82 weeks) “negative (inactive)”; (mouse, strain Swiss/ICR, males, inhaled, site: lung, lesion: adenoma, dosed 52 weeks, study length 52 weeks) “negative (inactive)”. The TD50 (mouse, strain Swiss/ICR, females, inhaled, site: lung, lesion: adenoma, dosed 52 weeks, study length 52 weeks) was 8930 mg/kg/day (inactive); the TD50 (mouse, strain Swiss/ICR, females, inhaled, site: lung, lesion: adenoma, dosed 78 weeks, study length 82 weeks) was 18900 mg/kg/day (inactive); the TD50 (mouse, strain Swiss/ICR, males, inhaled, site: liver, lesion: several types, types named in the paper, dosed 52 weeks, study length 52 weeks) is 8120 mg/kg/day (inactive); the TD50 (mouse, strain Swiss/ICR, males, inhaled, site: liver, lesion: several types, types named in the paper, dosed 78 weeks, study length 82 weeks) is 11700 mg/kg/day (inactive); the TD50 (mouse, strain Swiss/ICR, males, inhaled, site: lung, lesion: adenoma, dosed 78 weeks, study length 82 weeks) is 60900 mg/kg/day (inactive).
As for `Cc1ccc(N=Nc2c(O)c(S(=O)(=O)O)cc3cc(S(=O)(=O)O)ccc23)c(C)c1`, the TD50 runs as follows: (mouse, strain DDY, females, in feed, site: liver, lesion: hepatocellular adenoma, dosed 81 weeks, study length 81 weeks) 21500 mg/kg/day; (mouse, strain DDY, females, in feed, site: liver, lesion: hepatocellular carcinoma, dosed 81 weeks, study length 81 weeks) 784 mg/kg/day; (mouse, strain DDY, males, in feed, site: liver, lesion: hepatocellular adenoma, dosed 81 weeks, study length 81 weeks) 8790 mg/kg/day; (mouse, strain DDY, males, in feed, site: liver, lesion: hepatocellular carcinoma, dosed 81 weeks, study length 81 weeks) 659 mg/kg/day; (rat, strain CFE, females, in feed, site: liver, lesion: nodular hyperplasia, dosed 104 weeks, study length 104 weeks) 704 mg/kg/day; (rat, strain CFE, males, in feed, site: liver, lesion: nodular hyperplasia, dosed 104 weeks, study length 104 weeks) 2910 mg/kg/day. For the same compound, the TD50 (rat, strain Wistar albino, females, in feed, site: liver, lesion: hepatocellular carcinoma, dosed 52 weeks, study length 91 weeks) is 2620 mg/kg/day; the TD50 (rat, strain Wistar albino, females, in feed, site: liver, lesion: hepatocellular carcinoma, dosed 91 weeks, study length 91 weeks) was 3270 mg/kg/day; the TD50 (rat, strain Wistar albino, females, in feed, site: liver, lesion: several types, types named in the paper, dosed 52 weeks, study length 91 weeks) was 233 mg/kg/day; the TD50 (rat, strain Wistar, males, in feed, site: liver, lesion: liver-cell adenoma, dosed 65 weeks, study length 65 weeks) is 1130 mg/kg/day. Moreover, where the note is “rat, strain Wistar albino, females, in feed, site: liver, lesion: several types, types named in the paper, dosed 91 weeks, study length 91 weeks”, the carcinogen call was “positive”.
As to `CCCNC(=O)NS(=O)(=O)c1ccc(Cl)cc1`, the carcinogen call (mouse, strain B6C3F1, females, in feed, site: any site (literature study), lesion: several types, types named in the paper, dosed 104 weeks, study length 104 weeks) is “negative (inactive)”; the carcinogen call (mouse, strain B6C3F1, males, in feed, site: any site (literature study), lesion: several types, types named in the paper, dosed 104 weeks, study length 104 weeks) was “negative (inactive)”; the carcinogen call (rat, strain Fischer 344, females, in feed, site: any site (literature study), lesion: several types, types named in the paper, dosed 104 weeks, study length 104 weeks) was “negative (inactive)”; the carcinogen call (rat, strain Fischer 344, males, in feed, site: any site (literature study), lesion: several types, types named in the paper, dosed 103 weeks, study length 103 weeks) was “negative (inactive)”. For the same compound, the TD50 (mouse, strain B6C3F1, females, in feed, site: lung, lesion: alveolar/bronchiolar adenoma + alveolar/bronchiolar carcinoma, dosed 104 weeks, study length 104 weeks) came to 1440 mg/kg/day.
For the compound `[Cl][Cd][Cl]`, the carcinogen call by setting is: (hamster, strain Syrian Golden, females, inhaled, site: lung, lesion: one or several types, types not named, dosed 60 weeks, study length 76 weeks) “negative (inactive)”; (hamster, strain Syrian Golden, females, inhaled, site: lung, lesion: one or several types, types not named, dosed 64 weeks, study length 76 weeks) “negative (inactive)”; (hamster, strain Syrian Golden, males, inhaled, site: lung, lesion: one or several types, types not named, dosed 60 weeks, study length 102 weeks) “negative (inactive)”; (hamster, strain Syrian Golden, males, inhaled, site: lung, lesion: one or several types, types not named, dosed 64 weeks, study length 113 weeks) “negative (inactive)”; (mouse, strain NMRI, females, inhaled, site: lung, lesion: adenocarcinoma, dosed 42 weeks, study length 82 weeks) “negative (inactive)”; (mouse, strain NMRI, females, inhaled, site: lung, lesion: adenocarcinoma, dosed 69 weeks, study length 89 weeks) “negative (inactive)”. The carcinogen call by setting is: (mouse, strain NMRI, females, inhaled, site: lung, lesion: adenoma, dosed 42 weeks, study length 82 weeks) “negative (inactive)”; (mouse, strain NMRI, females, inhaled, site: lung, lesion: adenoma, dosed 69 weeks, study length 89 weeks) “negative (inactive)”; (mouse, strain NMRI, females, inhaled, site: lung, lesion: several types, types named in the paper, dosed 42 weeks, study length 82 weeks) “negative (inactive)”; (mouse, strain NMRI, females, inhaled, site: lung, lesion: several types, types named in the paper, dosed 69 weeks, study length 89 weeks) “negative (inactive)”; (rat, strain BOR:WISW (Wistar), females, in feed, site: kidney, lesion: one or several types, types not named, dosed 72 weeks, study length 72 weeks) “negative (inactive)”; (rat, strain BOR:WISW (Wistar), males, in feed, site: kidney, lesion: one or several types, types not named, dosed 72 weeks, study length 72 weeks) “negative (inactive)”. Besides, the carcinogen call is, setting by setting: (rat, strain Wistar W.74, females, in feed, site: liver, lesion: hepatoma, dosed 104 weeks, study length 105 weeks) “negative (inactive)”; (rat, strain Wistar W.74, males, in feed, site: any site (literature study), lesion: benign tumor, dosed 104 weeks, study length 105 weeks) “negative (inactive)”; (rat, strain Wistar W.74, males, in feed, site: any site (literature study), lesion: several types, types named in the paper, dosed 104 weeks, study length 105 weeks) “negative (inactive)”; (rat, strain Wistar W.74, males, in feed, site: liver, lesion: hepatoma, dosed 104 weeks, study length 105 weeks) “negative (inactive)”; (rat, strain Wistar, males, in feed, site: all sites, lesion: lymphocytic leukemia, dosed 77 weeks, study length 77 weeks) “positive”. For the same compound, the TD50 reads like this: (rat, strain NBL/Cr, males, in drinking water, site: adrenal gland, lesion: pheochromocytoma, benign/malignant, dosed 102 weeks, study length 102 weeks) 686 mg/kg/day; (rat, strain NBL/Cr, males, in drinking water, site: kidney/pelvis, lesion: transitional-cell carcinoma, dosed 102 weeks, study length 102 weeks) 584 mg/kg/day; (rat, strain NBL/Cr, males, in drinking water, site: kidney, lesion: lipoma, dosed 102 weeks, study length 102 weeks) 584 mg/kg/day; (rat, strain NBL/Cr, males, in drinking water, site: kidney, lesion: malignant mesenchymal tumor, dosed 102 weeks, study length 102 weeks) 193 mg/kg/day; (rat, strain NBL/Cr, males, in drinking water, site: kidney, lesion: several types, types named in the paper, dosed 102 weeks, study length 102 weeks) 114 mg/kg/day; (rat, strain Wistar W.74, females, in feed, site: any site (literature study), lesion: benign tumor, dosed 104 weeks, study length 105 weeks) 44 mg/kg/day (inactive). Also, the TD50 is, setting by setting: (rat, strain Wistar W.74, females, in feed, site: any site (literature study), lesion: malignant tumor, dosed 104 weeks, study length 105 weeks) 124 mg/kg/day (inactive); (rat, strain Wistar W.74, females, in feed, site: any site (literature study), lesion: several types, types named in the paper, dosed 104 weeks, study length 105 weeks) 21.6 mg/kg/day (inactive); (rat, strain Wistar W.74, males, in feed, site: adrenal gland, lesion: pheochromocytoma, dosed 104 weeks, study length 105 weeks) 1.33 mg/kg/day (inactive); (rat, strain Wistar W.74, males, in feed, site: any site (literature study), lesion: malignant tumor, dosed 104 weeks, study length 105 weeks) 47.4 mg/kg/day (inactive); (rat, strain Wistar, females, inhaled, site: lung, lesion: adenocarcinoma, dosed 26 weeks, study length 126 weeks) 0.206 mg/kg/day; (rat, strain Wistar, females, inhaled, site: lung, lesion: adenocarcinoma, dosed 78 weeks, study length 134 weeks) 0.0253 mg/kg/day. For the same compound, the TD50 is 0.106 mg/kg/day (rat, strain Wistar, females, inhaled, site: lung, lesion: adenosquamous carcinoma, dosed 78 weeks, study length 134 weeks); 0.0495 mg/kg/day (rat, strain Wistar, females, inhaled, site: lung, lesion: alveolar/bronchiolar adenoma, dosed 78 weeks, study length 134 weeks); 0.0645 mg/kg/day (rat, strain Wistar, females, inhaled, site: lung, lesion: several types, types named in the paper, dosed 26 weeks, study length 126 weeks); 0.00971 mg/kg/day (rat, strain Wistar, females, inhaled, site: lung, lesion: several types, types named in the paper, dosed 78 weeks, study length 134 weeks); 0.0998 mg/kg/day (rat, strain Wistar, females, inhaled, site: lung, lesion: squamous-cell tumor, dosed 26 weeks, study length 126 weeks); 56.9 mg/kg/day (rat, strain Wistar, males, in feed, site: prostate, lesion: adenoma, dosed 77 weeks, study length 77 weeks). The TD50 (rat, strain Wistar, males, in feed, site: testis, lesion: interstitial-cell tumor, benign, dosed 77 weeks, study length 77 weeks) was 31.6 mg/kg/day; the TD50 (rat, strain Wistar, males, inhaled, site: adrenal gland, lesion: pheochromocytoma, benign/malignant, dosed 78 weeks, study length 134 weeks) turned out to be 0.591 mg/kg/day; the TD50 (rat, strain Wistar, males, inhaled, site: lung, lesion: adenocarcinoma, dosed 26 weeks, study length 130 weeks) is 0.0294 mg/kg/day; the TD50 (rat, strain Wistar, males, inhaled, site: lung, lesion: adenocarcinoma, dosed 78 weeks, study length 130 weeks) came out at 0.00924 mg/kg/day; the TD50 (rat, strain Wistar, males, inhaled, site: lung, lesion: adenocarcinoma, dosed 78 weeks, study length 134 weeks) turned out to be 0.022 mg/kg/day; the TD50 (rat, strain Wistar, males, inhaled, site: lung, lesion: adenoma, dosed 78 weeks, study length 134 weeks) is 0.563 mg/kg/day. Besides, the TD50 was 0.165 mg/kg/day (rat, strain Wistar, males, inhaled, site: lung, lesion: adenosquamous carcinoma, dosed 78 weeks, study length 130 weeks); 0.0521 mg/kg/day (rat, strain Wistar, males, inhaled, site: lung, lesion: alveolar/bronchiolar adenoma, dosed 26 weeks, study length 130 weeks); 0.0804 mg/kg/day (rat, strain Wistar, males, inhaled, site: lung, lesion: alveolar/bronchiolar adenoma, dosed 78 weeks, study length 130 weeks); 0.0127 mg/kg/day (rat, strain Wistar, males, inhaled, site: lung, lesion: carcinoma, dosed 78 weeks, study length 134 weeks); 0.0588 mg/kg/day (rat, strain Wistar, males, inhaled, site: lung, lesion: epidermoid carcinoma, dosed 78 weeks, study length 134 weeks); 0.315 mg/kg/day (rat, strain Wistar, males, inhaled, site: lung, lesion: muco-epidermoid carcinoma, dosed 78 weeks, study length 134 weeks). The TD50 reads like this: (rat, strain Wistar, males, inhaled, site: lung, lesion: several types, types named in the paper, dosed 26 weeks, study length 130 weeks) 0.0106 mg/kg/day; (rat, strain Wistar, males, inhaled, site: lung, lesion: several types, types named in the paper, dosed 78 weeks, study length 130 weeks) 0.00611 mg/kg/day; (rat, strain Wistar, males, inhaled, site: lung, lesion: squamous-cell tumor, dosed 26 weeks, study length 130 weeks) 0.0521 mg/kg/day.
